The source made the active and inactive calls.
Experiments:
Streptococcus = experiment: Group A Streptococcus viability loss, dose response, counter-screen for streptokinase expression inhibitor project, luminescence, BacTiterGlo (AID 1915); type: functional, organism-based;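 further: potency for reduction of bacterial viability or growth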
cells [1] = type: functional, cell-based
BJ [2] = experiment: cytotoxicity toward BJ-TERT-LT-ST fibroblasts, dose response, cell-based, RAS-independent, luminescence (AID 1935); type: functional; settings: Homo sapiens;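 further: BJ fibroblasts immortalized with TERT plus LT and ST oncogenes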
BJ [3] = experiment: cytotoxicity toward BJ-TERT fibroblasts, dose response, cell-based, RAS-independent, luminescence (AID 1933); type: functional; settings: Homo sapiens
cells [4] = type: functional, cell-based; remark: listed apart in the source
[5] = cytotoxicity toward DRD oncogenic fibroblasts, dose response, cell-based, non-viral oncogenic, luminescence (AID 1934); type: functional; settings: Homo sapiens
Vero [6] = experiment: cells; type: functional, cell-based; settings: Chlorocebus sabaeus
Vero [7] = experiment: host cell cytotoxicity of antiviral hits, dose response, cytotoxicity control for West Nile virus antiviral project, secondary assay (AID 1650); type: functional; settings: Chlorocebus sabaeus
[8] = cytotoxicity toward NIH3T3 fibroblasts, dose response, counter-screen, cell-based, ATP luminescence, mouse fibroblasts (AID 2010); type: functional;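 further: cells exposed to compound for about 90 hours before reading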
BJ [9] = experiment: cells; type: functional, cell-based; settings: Homo sapiens
[10] = system: Streptococcus sp. 'group A'; experiment: growth inhibition of control SK(-) GAS strain, dose response, counter-screen for streptokinase expression inhibitor project, luminescence, kanamycin, BacTiterGlo, confirmation (AID 1900); type: functional, organism-based
[11] = inhibitors of intracellular T. cruzi replication, confirmation, NIH3T3 host cells, beta-gal luminescence (AID 2044); type: functional, cell-based;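 further: intracellular parasites grown in NIH/3T3 mouse fibroblasts as host cells; luminescent beta-galactosidase reporter signal from transgenic T. cruzi replicating inside host cells; inhibitors lower the luminescence signal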
NADPH oxidase 1 = target: T1, NADPH oxidase 1 (Homo sapiens, UniProt Q9Y5S8); experiment: Luminescence-based cell-based dose response assay to identify inhibitors of NADPH oxidase 1 (NOX1).; type: functional
T1 sequence (Q9Y5S8 whole entry): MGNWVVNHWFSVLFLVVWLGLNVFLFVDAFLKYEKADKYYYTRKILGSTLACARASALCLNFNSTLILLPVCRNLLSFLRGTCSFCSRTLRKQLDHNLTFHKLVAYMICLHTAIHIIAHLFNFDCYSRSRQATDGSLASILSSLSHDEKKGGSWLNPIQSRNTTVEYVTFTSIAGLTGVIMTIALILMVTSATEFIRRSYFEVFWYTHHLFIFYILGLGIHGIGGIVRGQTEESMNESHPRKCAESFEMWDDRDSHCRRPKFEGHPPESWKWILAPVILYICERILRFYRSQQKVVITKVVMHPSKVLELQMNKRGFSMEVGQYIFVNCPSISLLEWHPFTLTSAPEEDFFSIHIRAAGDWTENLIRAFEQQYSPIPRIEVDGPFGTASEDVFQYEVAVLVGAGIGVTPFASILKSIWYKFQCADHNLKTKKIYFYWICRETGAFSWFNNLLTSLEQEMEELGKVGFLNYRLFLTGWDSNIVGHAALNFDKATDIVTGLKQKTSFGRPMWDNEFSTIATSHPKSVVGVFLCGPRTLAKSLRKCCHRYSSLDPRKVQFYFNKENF

[12] = target: T2, Mannose-6-phosphate isomerase (Homo sapiens, UniProt P34949); experiment: inhibitors of human PMI, primary screen, biochemical, fluorescence intensity, coupled assay (AID 1209)
T2 sequence (P34949 whole entry): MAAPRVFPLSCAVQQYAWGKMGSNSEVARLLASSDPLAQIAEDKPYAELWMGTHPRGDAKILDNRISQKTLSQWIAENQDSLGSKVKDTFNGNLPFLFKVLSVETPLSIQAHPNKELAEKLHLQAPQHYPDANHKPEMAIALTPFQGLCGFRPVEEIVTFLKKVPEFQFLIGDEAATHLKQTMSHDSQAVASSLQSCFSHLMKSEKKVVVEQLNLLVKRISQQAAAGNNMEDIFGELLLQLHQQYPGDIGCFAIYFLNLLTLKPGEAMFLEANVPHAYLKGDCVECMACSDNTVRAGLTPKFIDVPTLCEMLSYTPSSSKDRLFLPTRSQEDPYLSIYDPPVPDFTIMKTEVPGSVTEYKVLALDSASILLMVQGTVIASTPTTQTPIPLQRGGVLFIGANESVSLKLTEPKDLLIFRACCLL

[13] = growth suppression of beta-catenin-knockout colon cells, dose response, cell-based, HCT116, human colon tumor (AID 1045); type: functional;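 further: HCT116 colon tumor cells with beta catenin knocked out; cells exposed to compound for 60 hours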
[14] = target: T2, Mannose-6-phosphate isomerase; experiment: human PMI inhibitors, high substrate, primary screen, biochemical, fluorescence intensity, high mannose 6-phosphate (AID 1220)
[15] = growth suppression of PTEN-null colon cells, dose response, cell-based, HCT116 PTEN knockout (AID 1047); type: functional;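 further: HCT116 colon tumor cells with PTEN knocked out; cells exposed to compound for 60 hours before readout; potency for loss of cell viability measured by luminescence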
[16] = inhibitors of Bluetongue virus cytopathic effect, confirmation, arbovirus, BSR cells (AID 1250); type: functional;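 further: protection from viral cytopathic effect measured as cell viability by ATP luminescence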
Cytochrome P450 2C19 = Cytochrome P450 2C19 (Homo sapiens, UniProt P33261); experiment: Cytochrome panel assay with activity outcomes. Panel member name: p450-cyp2c19 Compounds with AC50 equal or less than 10 uM are considered active; type: functional; settings: read-out: AC50
Chain of Cytochrome P450 2C19 (P33261 whole entry): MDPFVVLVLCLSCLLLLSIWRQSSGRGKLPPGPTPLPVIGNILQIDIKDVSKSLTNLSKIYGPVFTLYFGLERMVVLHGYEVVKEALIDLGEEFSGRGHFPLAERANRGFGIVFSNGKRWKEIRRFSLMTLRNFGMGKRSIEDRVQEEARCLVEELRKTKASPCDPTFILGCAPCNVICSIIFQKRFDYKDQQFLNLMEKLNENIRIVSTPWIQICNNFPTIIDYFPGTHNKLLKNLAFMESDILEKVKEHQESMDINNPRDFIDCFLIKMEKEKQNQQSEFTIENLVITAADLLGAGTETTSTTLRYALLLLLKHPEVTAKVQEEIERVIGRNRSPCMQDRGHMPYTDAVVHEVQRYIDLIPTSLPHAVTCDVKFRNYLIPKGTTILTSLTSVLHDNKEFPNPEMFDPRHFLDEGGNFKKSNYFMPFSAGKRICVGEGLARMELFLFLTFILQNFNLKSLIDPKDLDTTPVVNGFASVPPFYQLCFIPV

[17] = Luminescence Cell-Based Dose Response HTS to Identify Inhibitors of 5'UTR Stem-Loop Driven Prion Protein mRNA Translation in H4 Neuroglioblastoma Cells. [Related pubchem assays: 1827 (Project Summary), 1813 (Primary HTS)]; type: functional
[18] = cytotoxicity in HEK-293T cells, dose response, cytotoxicity control for BCR NF-kB inhibitor project, luminescence, B-cell screen hits (AID 489021); type: functional, cell-based;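 further: HEK-293T cells carrying an NF-kB luciferase reporter; cells exposed to compound for about 14 hours before viability readout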
[19] = Luminescence-based dose response cell-based high throughput screening assay for cytotoxic compounds using the IEC-6 intestinal epithelial cell line. [Related pubchem assays: 1858 (Summary AID.), 1825 (Counterscreen.), 1907 (Confirmation screen.)]; type: functional
BJ [20] = experiment: cytotoxicity toward Ras-transformed BJeLR fibroblasts, dose response, cell-based, alamar blue fluorescence, cherrypicked samples (AID 2631); type: functional; settings: Homo sapiens;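 further: confirmatory dose-response assay in RAS-dependent BJ fibroblasts engineered with TERT, LT and ST, with cytotoxicity read by fluorescence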
[21] = inhibitors of firefly luciferase expression or activity, dose response, H4 neuroglioma cells, luminescence (AID 1990); type: functional, cell-based
INS1 = experiment: beta cell apoptosis inhibitors, cytokine rescue, dose response, luminescence, retest (AID 449756); type: functional, cell-based; settings: Rattus norvegicus;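 further: cell death triggered by IL-1 beta plus TNF-alpha plus IFN-gamma mixture; protective hits raise ATP signal compared with cytokine alone wells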
[22] = inhibitors of SNCA 5'UTR-driven reporter translation, confirmation, H4 neuroglioma cells, luminescence (AID 1988); type: functional, cell-based
[23] = target: Glyceraldehyde-3-phosphate dehydrogenase (Homo sapiens, UniProt P04406)
Chain of Glyceraldehyde-3-phosphate dehydrogenase (P04406 whole entry): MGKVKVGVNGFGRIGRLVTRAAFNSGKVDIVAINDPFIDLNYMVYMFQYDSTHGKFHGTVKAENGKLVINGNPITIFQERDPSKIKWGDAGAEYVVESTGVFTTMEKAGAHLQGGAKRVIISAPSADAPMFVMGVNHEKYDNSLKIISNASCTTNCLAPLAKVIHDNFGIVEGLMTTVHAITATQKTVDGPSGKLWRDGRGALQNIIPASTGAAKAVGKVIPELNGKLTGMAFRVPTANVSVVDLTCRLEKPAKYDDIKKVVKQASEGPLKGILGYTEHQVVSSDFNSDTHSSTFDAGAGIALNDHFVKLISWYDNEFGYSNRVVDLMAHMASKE

Bcl-2-related protein A1 [24] = target: T3, Bcl-2-related protein A1 (Mus musculus, UniProt Q07440); experiment: Bfl-1 inhibitors blocking BH3 peptide binding, confirmation, biochemical, TR-FRET, mouse Bfl-1 (AID 621);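 further: TR-FRET binding of GST-Bfl-1 to FITC-labelled Bid peptide via terbium antibody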
T3 sequence (Q07440 whole entry): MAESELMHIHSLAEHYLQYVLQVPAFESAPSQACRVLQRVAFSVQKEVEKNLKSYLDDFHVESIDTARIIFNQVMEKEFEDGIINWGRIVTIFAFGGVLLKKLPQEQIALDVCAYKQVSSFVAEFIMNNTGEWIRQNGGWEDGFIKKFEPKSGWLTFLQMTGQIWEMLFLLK

Bcl-2-related protein A1 [25] = target: T3, Bcl-2-related protein A1; experiment: Bfl-1 binding inhibitors, SAR follow-up, biochemical, fluorescence polarization (AID 1070)

Oc1nc(-c2ccccn2)nc2sc(-c3ccccc3)cc12
EC50 (Streptococcus): 13.2 µM (active)
EC50 (cells [1]): 16.6 µM (active)
EC50 (BJ [2]): 15.6 µM (inconclusive)
EC50 (BJ [3]): 17.6 µM (active)
EC50 (cells [4]): 4.87 µM (active)
EC50 [5]: 121 µM (inconclusive)
IC50 (Vero [6]): 7 µM (active)
CC50 (Vero [7]): 2.08 µM (active)
EC50 [8]: 1.27 µM (active)
EC50 (BJ [9]): 16.2 µM (active)
EC50 [10]: 0.571 µM (active)
EC50 [11]: 0.216 µM (active)

[O-][S+]1c2ccccc2Nc2ccccc21
IC50 (NADPH oxidase 1): > 20 µM (not active)

O=C(NCc1ccco1)c1cccn2c(=O)c3cc4ccccc4cc3nc12
IC50 [12]: > 50 µM (not active)
EC50 [13]: 10.7 µM (active)
IC50 [14]: > 50 µM (not active)
EC50 [15]: 12.4 µM (active)

O=c1oc(-c2cccs2)nc2ccc(Br)cc12
IC50 [16]: 28.9 µM (active)
AC50 (Cytochrome P450 2C19): 22.4 µM (inconclusive)

COc1ccc(Cc2nc(-c3ccc(NC(=O)c4cccnc4)cc3)no2)cc1
EC50 [17]: 8.73 µM (active)
EC50 (BJ [2]): > 150 µM (not active)
EC50 (BJ [3]): > 150 µM (inconclusive)
IC50 [18]: > 80 µM (inactive)
EC50 [5]: > 150 µM (not active)
IC50 [19]: 0.649 µM (active)
EC50 (BJ [20]): 58.4 µM (active)
EC50 [21]: 11.2 µM (active)
EC50 (BJ [9]): 2.38 µM (active)
AC50 (INS1): < 0.195 µM (active)
EC50 [22]: 5.99 µM (active)

O=C1C(Cl)=C(Cl)C(=O)N1c1ccc(Cl)c(Cl)c1
IC50 [23]: > 100 µM (not active)
IC50 (Bcl-2-related protein A1 [24]): 0.77 µM (active)
IC50 (Bcl-2-related protein A1 [25]): 1.15 µM (active)
